# Assays:
# Format in all cases: in vivo
# [1] = test system: diamondback moth (Plutella xylostella (L.)); assay: Test A: control of diamondback moth on mustard plant, spray; conditions: sprayed at 250 ppm; assessed after 6 days
# Protocol: (§1) Test compounds were formulated using a solution containing 10% acetone, […] and 300 ppm Activator 909 non-ionic surfactant (Loveland Products, Loveland, Colorado, USA). The formulated compounds were applied in 1 mL of liquid through an atomizer nozzle positioned 1.27 cm (0.5 inches) above the top of each test unit. Test compounds were sprayed at the rates indicated, and each test was replicated three times.
# For evaluating control of diamondback moth (Plutella xylostella (L.)) the test unit consisted of a small open container with a 12-14-day-old mustard plant inside. This was pre-infested with ˜50 neonate larvae that were dispensed into the test unit via corn cob grits using an inoculator. The larvae moved onto the test plant after being dispensed into the test unit.
# Test compounds were formulated and sprayed at 250 ppm. After spraying of the formulated test compound, each test unit was allowed to dry for 1 hour and then a black, screened cap was placed on top. The test units were held for 6 days in a growth chamber at 25° C. and 70% relative humidity. Plant feeding damage was then visually assessed based on foliage consumed, and larvae were assessed for mortality.
# [2] = test system: corn planthopper (Peregrinus maidis (Ashmead)); assay: whole plant or invertebrate; conditions: Peregrinus maidis, 144 h, 6 days; for mortality at 10 ppm: sprayed at 10 ppm; for mortality at 50 ppm: sprayed at 50 ppm; for mortality at 250 ppm: sprayed at 250 ppm
# In short: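 Corn plants 3-4 days old were sprayed at 250, 50 and/or 10 ppm in 10% acetone with 300 ppm non-ionic surfactant, three replicates, contact and/or systemic exposure. After 1 h drying, ~15-20 nymphs (18-to-21-day-old) were added; mortality assessed visually after 6 days at 22-24° C, 50-70% RH.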
# [3] = test system: potato leafhopper (Empoasca fabae (Harris)); assay: Test C: control of potato leafhopper on Soleil bean plant, spray; conditions: Empoasca fabae, 144 h; sprayed at 250 ppm; 6 days
# Protocol: as §1
# For evaluating control of potato leafhopper (Empoasca fabae (Harris)) through contact and/or systemic means, the test unit consisted of a small open container with a 5-6-day-old Soleil bean plant (primary leaves emerged) inside. White sand was added to the top of the soil, and one of the primary leaves was excised prior to application of the test compound.
# […] After spraying of the formulated test compound, the test units were allowed to dry for 1 hour before they were post-infested with 5 potato leafhoppers (18-to-21-day-old adults). A black, screened cap was placed on the top of the test unit, and the test units were held for 6 days in a growth chamber at 20° C. and 70% relative humidity. Each test unit was then visually assessed for insect mortality.
# [4] = test system: cotton melon aphid (Aphis gossypii (Glover)); assay: whole plant or invertebrate; conditions: Aphis gossypii, 144 h, 6 days; for mortality at 50 ppm: sprayed at 50 ppm; for mortality at 250 ppm: sprayed at 250 ppm
# In short: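 Compounds were formulated in a solution of 10% acetone, […] and 300 ppm Activator 909 non-ionic surfactant and sprayed as 1 mL through an atomizer nozzle 1.27 cm (0.5 inches) above each test unit, with three replicates. Units were pre-infested with 30-40 aphids on leaf pieces via the cut-leaf method, soil covered with sand, then kept 6 days at 19° C. and 70% relative humidity before visual mortality scoring.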
# [5] = test system: Western Flower Thrips (Frankliniellla occidentalis (Pergande)); assay: Test G: control of Western Flower Thrips on Soleil bean plant, spray; conditions: sprayed at 250 ppm; 6 days
# Protocol: as §1
# For evaluating control of the Western Flower Thrips (Frankliniellla occidentalis (Pergande)) through contact and/or systemic means, the test unit consisted of a small open container with a 5-7-day-old Soleil bean plant inside.
# Test compounds were formulated and sprayed at 250 ppm. After spraying, the test units were allowed to dry for 1 hour, and then about 60 thrips (adults and nymphs) were added to each unit. A black, screened cap was placed on top, and the test units were held for 6 days at 25° C. and 45-55% relative humidity. Each test unit was then visually assessed for plant damage and insect mortality.
# [6] = test system: green peach aphid (Myzus persicae (Sulzer)); assay: Test D: control of green peach aphid on radish plant, spray; conditions: Myzus persicae, 144 h, 6 days; for mortality at 250 ppm: sprayed at 250 ppm
# In short: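 Radish plants (12-15 days old) pre-infested with 30-40 aphids, sprayed with compound in 10% acetone/water with 300 ppm non-ionic surfactant at 250 and/or 50 ppm, three replicates. Held 6 days at 19-21 °C, 50-70% relative humidity, then mortality scored visually.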
# [7] = test system: sweetpotato whitefly (Bemisia tabaci (Gennadius)); assay: Test F: control of sweetpotato whitefly on cotton plant, spray; conditions: 312 h, 13 days; for mortality at 250 ppm: sprayed at 250 ppm
# In short: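 Cotton plants 12–14 days old, trimmed to one true leaf and carrying at least 15 whitefly eggs, were sprayed at 250 and/or 50 ppm in acetone/water with non-ionic surfactant, three replicates. After 13 days at 28° C and 50-70% relative humidity, insect mortality was scored visually.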
Structure (SMILES),control efficacy (40% or less feeding damage and/or 100% mortality) [1],mortality at 10 ppm [2] [%],mortality at 50 ppm [2] [%],mortality at 250 ppm [2] [%],mortality at 250 ppm [3] [%],mortality at 50 ppm [4] [%],mortality at 250 ppm [4] [%],control efficacy (30% or less plant damage and/or 100% mortality) [5],mortality at 250 ppm [6] [%],mortality at 250 ppm [7] [%],mortality at 50 ppm ([6]; sprayed at 50 ppm) [%],mortality at 50 ppm ([7]; sprayed at 50 ppm) [%]
Fc1cncc(-c2ncco2)c1C(F)c1ccc(OC(F)(F)F)cc1 (centres unmarked) [Compound 32],very good to excellent levels of control efficacy,≥ 80,≥ 80,≥ 80,≥ 80,≥ 80,≥ 80,very good to excellent levels of control efficacy,–,–,–,–
Fc1cncc(-c2nccs2)c1C(F)c1ccc(OC(F)(F)F)cc1 (centres unmarked) [Compound 33],very good to excellent levels of control efficacy,≥ 80,≥ 80,≥ 80,≥ 80,≥ 80,≥ 80,very good to excellent levels of control efficacy,–,–,–,–
Fc1cncc(-c2nccs2)c1C(F)c1ccc(OC(F)(F)F)cc1 (centres unmarked) [Compound 36],very good to excellent levels of control efficacy,–,–,–,–,–,–,very good to excellent levels of control efficacy,≥ 80,≥ 70,–,–
COC(c1ccc(OC(F)(F)F)cc1)c1c(F)cncc1-n1cccn1 (centres unmarked) [Compound 37],–,–,≥ 80,≥ 80,≥ 80,≥ 80,≥ 80,–,≥ 80,≥ 70,–,–
Fc1cncc(-c2ccno2)c1C(F)c1ccc(OC(F)(F)F)cc1 (centres unmarked) [Compound 41],–,≥ 80,≥ 80,–,–,–,≥ 80,very good to excellent levels of control efficacy,–,–,–,–
FC(c1ccc(OC(F)(F)F)cc1)c1c(Cl)cncc1-c1nccs1 (centres unmarked) [Compound 50],very good to excellent levels of control efficacy,≥ 80,≥ 80,–,–,≥ 80,≥ 80,very good to excellent levels of control efficacy,–,–,–,–
FC(c1ccc(SC(F)(F)F)cc1)c1ccncc1-n1nccn1 (centres unmarked) [Compound 69],–,≥ 80,≥ 80,≥ 80,≥ 80,≥ 80,≥ 80,–,≥ 80,≥ 70,≥ 80,≥ 70

# — patent US12568969B2, “Pyridine compounds for controlling invertebrate pests” (FMC Corporation, priority 2020, dated 2026)
